Measured values reported in patent publication US10588317B2, “Isoxazoline-substituted benzamides and analogues as insecticides” (priority 2015, dated 2020).

Tests used:
Format in all cases: in vivo
Tetranychus urticae = Tetranychus urticae (two-spotted spider mite): feeding/contact activity; settings: 192 h, application rate 200 ppm, mixed population (mobile stages), 8 days after infestation, read-out: mortality
Experimental: Bean leaf discs on agar in 24-well microtiter plates were sprayed with aqueous test solutions prepared from 10'000 ppm DMSO stock solutions. After drying the leaf discs were infested with a mite population of mixed ages. The samples were assessed for mortality on mixed population (mobile stages) 8 days after infestation.

Euschistus heros = Euschistus heros (neotropical brown stink bug), sprayed soybean leaves; settings: 120 h, application rate 200 ppm, N2 nymphs, 5 days after infestation, read-out: effect in at least one of the two categories (mortality or growth inhibition)
Experimental: Soybean leaves on agar in 24-well microtiter plates were sprayed with aqueous test solutions prepared from 10'000 ppm DMSO stock solutions. After drying the leaves were infested with N2 nymphs. The samples were assessed for mortality and growth inhibition in comparison to untreated samples 5 days after infestation.
(§1) The following compounds gave an effect of at least 80% in at least one of the two categories (mortality or growth inhibition) at an application rate of 200 ppm: […]

Diabrotica balteata = Diabrotica balteata (corn root worm), sprayed maize sprouts; settings: 96 h, application rate 200 ppm, L2 larvae, 4 days after infestation, read-out: effect in at least one of the two categories (mortality or growth inhibition)
Experimental: Maize sprouts placed onto an agar layer in 24-well microtiter plates were treated with aqueous test solutions prepared from 10'000 ppm DMSO stock solutions by spraying. After drying, the plates were infested with L2 larvae (6 to 10 per well). The samples were assessed for mortality and growth inhibition in comparison to untreated samples 4 days after infestation.
as §1

Spodoptera littoralis = Spodoptera littoralis (Egyptian cotton leaf worm), sprayed cotton leaf discs; settings: foliar, 72 h, application rate 200 ppm, L1 larvae, 3 days after infestation, read-out: control (mortality, anti-feeding effect, growth inhibition)
Experimental: Cotton leaf discs were placed onto agar in 24-well microtiter plates and sprayed with aqueous test solutions prepared from 10'000 ppm DMSO stock solutions. After drying the leaf discs were infested with five L1 larvae. The samples were assessed for mortality, anti-feeding effect, and growth inhibition in comparison to untreated samples 3 days after infestation. Control of Spodoptera littoralis by a test sample is given when at least one of the categories mortality, anti-feedant effect, and growth inhibition is higher than the untreated sample.

Plutella xylostella = Plutella xylostella (diamond back moth), artificial diet; settings: 120 h, application rate 200 ppm, L2 larvae, 5 days after infestation, read-out: effect in at least one of the two categories (mortality or growth inhibition)
Experimental: 24-well microtiter plates with artificial diet were treated with aqueous test solutions prepared from 10'000 ppm DMSO stock solutions by pipetting. After drying, the plates were infested with L2 larvae (10 to 15 per well). The samples were assessed for mortality and growth inhibition in comparison to untreated samples 5 days after infestation.
as §1

Thrips tabaci = Thrips tabaci (onion thrips): feeding/contact activity; settings: 144 h, application rate 200 ppm, Thrips population of mixed ages, 6 days after infestation, read-out: mortality
Experimental: Sunflower leaf discs were placed on agar in 24-well microtiter plates and sprayed with aqueous test solutions prepared from 10'000 ppm DMSO stock solutions. After drying the leaf discs were infested with a Thrips population of mixed ages. The samples were assessed for mortality 6 days after infestation.

Cc1cc(C2=NO[C@@](c3cc(Cl)c(F)c(Cl)c3)(C(F)(F)F)C2)ccc1C(=O)N[C@@H]1CON(S(=O)(=O)CC(=O)NO)C1 [Compound A203, 4-[(5S)-5-(3,5-dichloro-4-fluorophenyl)-5-(trifluoromethyl)-4H-1,2-oxazol-3-yl]-N-[(4S)-2-[2-(hydroxyamino)-2-oxoethyl]sulfonyl-1,2-oxazolidin-4-yl]-2-methylbenzamide]
≥ 80%: mortality at 200 ppm (Tetranychus urticae) | percent effect (mortality or growth inhibition) at 200 ppm (Euschistus heros) | percent effect (mortality or growth inhibition) at 200 ppm (Diabrotica balteata) | mortality at 200 ppm (Spodoptera littoralis) | percent effect (mortality or growth inhibition) at 200 ppm (Plutella xylostella) | mortality at 200 ppm (Thrips tabaci)

Cc1cc(C2=NO[C@](c3cc(Cl)c(F)c(Cl)c3)(C(F)(F)F)C2)ccc1C(=O)N[C@H]1CON(S(=O)(=O)CC(F)F)C1 [Compound A225, 4-[(5R)-5-(3,5-dichloro-4-fluorophenyl)-5-(trifluoromethyl)-4H-1,2-oxazol-3-yl]-N-[(4R)-2-(2,2-difluoroethylsulfonyl)-1,2-oxazolidin-4-yl]-2-methylbenzamide]
≥ 80%: mortality at 200 ppm (Tetranychus urticae) | percent effect (mortality or growth inhibition) at 200 ppm (Euschistus heros) | percent effect (mortality or growth inhibition) at 200 ppm (Diabrotica balteata) | mortality at 200 ppm (Spodoptera littoralis) | percent effect (mortality or growth inhibition) at 200 ppm (Plutella xylostella) | mortality at 200 ppm (Thrips tabaci)

CS(=O)(=O)N1CC(NC(=O)c2ccc(C3=NOC(c4cc(Cl)cc(Cl)c4)(C(F)(F)F)C3)cc2C(F)(F)F)CO1 (stereo not drawn) [Compound A58]
≥ 80%: mortality at 200 ppm (Tetranychus urticae) | percent effect (mortality or growth inhibition) at 200 ppm (Euschistus heros) | percent effect (mortality or growth inhibition) at 200 ppm (Diabrotica balteata) | mortality at 200 ppm (Spodoptera littoralis) | percent effect (mortality or growth inhibition) at 200 ppm (Plutella xylostella) | mortality at 200 ppm (Thrips tabaci)

Cc1cc(C2=NO[C@](c3cc(Cl)cc(Cl)c3)(C(F)(F)F)C2)ccc1C(=O)N[C@H]1CON(S(=O)(=O)NC2(C#N)CC2)C1 [Compound A167]
≥ 80%: mortality at 200 ppm (Tetranychus urticae) | percent effect (mortality or growth inhibition) at 200 ppm (Euschistus heros) | percent effect (mortality or growth inhibition) at 200 ppm (Diabrotica balteata) | mortality at 200 ppm (Spodoptera littoralis) | percent effect (mortality or growth inhibition) at 200 ppm (Plutella xylostella) | mortality at 200 ppm (Thrips tabaci)

C=CCN(C(=O)OC(C)(C)C)S(=O)(=O)N1CC(NC(=O)c2ccc(C3=NO[C@@](c4cc(Cl)c(F)c(Cl)c4)(C(F)(F)F)C3)cc2C)CO1 (stereo partly drawn) [Compound A94, tert-butyl N-allyl-N-[4-[[4-[(5S)-5-(3,5-dichloro-4-fluoro-phenyl)-5-(trifluoromethyl)-4H-isoxazol-3-yl]-2-methyl-benzoyl]amino]isoxazolidin-2-yl]sulfonyl-carbamate]
≥ 80%: mortality at 200 ppm (Tetranychus urticae) | percent effect (mortality or growth inhibition) at 200 ppm (Euschistus heros) | percent effect (mortality or growth inhibition) at 200 ppm (Diabrotica balteata) | mortality at 200 ppm (Spodoptera littoralis) | percent effect (mortality or growth inhibition) at 200 ppm (Plutella xylostella) | mortality at 200 ppm (Thrips tabaci)

COC(=O)CN(C)S(=O)(=O)N1CC(NC(=O)c2ccc(C3=NO[C@@](c4cc(Cl)c(Cl)c(Cl)c4)(C(F)(F)F)C3)cc2C)CO1 (stereo partly drawn) [Compound A88, methyl 2-[methyl-[4-[[2-methyl-4-[(5S)-5-(3,4,5-trichlorophenyl)-5-(trifluoromethyl)-4H-isoxazol-3-yl]benzoyl]amino]isoxazolidin-2-yl]sulfonyl-amino]acetate]
≥ 80%: mortality at 200 ppm (Tetranychus urticae) | percent effect (mortality or growth inhibition) at 200 ppm (Euschistus heros) | percent effect (mortality or growth inhibition) at 200 ppm (Diabrotica balteata) | mortality at 200 ppm (Spodoptera littoralis) | percent effect (mortality or growth inhibition) at 200 ppm (Plutella xylostella) | mortality at 200 ppm (Thrips tabaci)

Cc1cc(C2=NO[C@@](c3cc(Cl)c(F)c(Cl)c3)(C(F)(F)F)C2)ccc1C(=O)NC1CON(S(=O)(=O)NS(C)(=O)=O)C1 (stereo partly drawn) [Compound A102, 4-[(5S)-5-(3,5-dichloro-4-fluoro-phenyl)-5-(trifluoromethyl)-4H-isoxazol-3-yl]-2-methyl-N-[2-(methylsulfonylsulfamoyl)isoxazolidin-4-yl]benzamide]
≥ 80%: mortality at 200 ppm (Tetranychus urticae) | percent effect (mortality or growth inhibition) at 200 ppm (Euschistus heros) | percent effect (mortality or growth inhibition) at 200 ppm (Diabrotica balteata) | mortality at 200 ppm (Spodoptera littoralis) | percent effect (mortality or growth inhibition) at 200 ppm (Plutella xylostella) | mortality at 200 ppm (Thrips tabaci)

CCOC(=O)CN(C)S(=O)(=O)N1CC(NC(=O)c2ccc(C3=NO[C@@](c4cc(Cl)c(Cl)c(Cl)c4)(C(F)(F)F)C3)cc2C)CO1 (stereo partly drawn) [Compound A89, ethyl 2-[methyl-[4-[[2-methyl-4-[(5S)-5-(3,4,5-trichlorophenyl)-5-(trifluoromethyl)-4H-isoxazol-3-yl]benzoyl]amino]isoxazolidin-2-yl]sulfonyl-amino]acetate]
≥ 80%: mortality at 200 ppm (Tetranychus urticae) | percent effect (mortality or growth inhibition) at 200 ppm (Euschistus heros) | percent effect (mortality or growth inhibition) at 200 ppm (Diabrotica balteata) | mortality at 200 ppm (Spodoptera littoralis) | percent effect (mortality or growth inhibition) at 200 ppm (Plutella xylostella) | mortality at 200 ppm (Thrips tabaci)

Cc1cc(C2=NOC(c3cccc(C(F)(F)F)c3)(C(F)(F)F)C2)ccc1C(=O)NC1CON(S(C)(=O)=O)C1 (stereo not drawn) [Compound A60]
≥ 80%: mortality at 200 ppm (Tetranychus urticae) | percent effect (mortality or growth inhibition) at 200 ppm (Euschistus heros) | percent effect (mortality or growth inhibition) at 200 ppm (Diabrotica balteata) | mortality at 200 ppm (Spodoptera littoralis) | percent effect (mortality or growth inhibition) at 200 ppm (Plutella xylostella) | mortality at 200 ppm (Thrips tabaci)

COC(=O)CS(=O)(=O)N1C[C@H](NC(=O)c2ccc(C3=NO[C@@](c4cc(Cl)c(F)c(Cl)c4)(C(F)(F)F)C3)cc2C)CO1 [Compound A190, methyl 2-[[(4S)-4-[[4-[(5S)-5-(3,5-dichloro-4-fluorophenyl)-5-(trifluoromethyl)-4H-1,2-oxazol-3-yl]-2-methylbenzoyl]amino]-1,2-oxazolidin-2-yl]sulfonyl]acetate]
≥ 80%: mortality at 200 ppm (Tetranychus urticae) | percent effect (mortality or growth inhibition) at 200 ppm (Euschistus heros) | percent effect (mortality or growth inhibition) at 200 ppm (Diabrotica balteata) | mortality at 200 ppm (Spodoptera littoralis) | percent effect (mortality or growth inhibition) at 200 ppm (Plutella xylostella) | mortality at 200 ppm (Thrips tabaci)

Cc1cc(C2=NO[C@](c3cc(Cl)c(F)c(Cl)c3)(C(F)(F)F)C2)ccc1C(=O)N[C@@H]1CON(SC(F)(F)F)C1 [Compound A224, 4-[(5R)-5-(3,5-dichloro-4-fluorophenyl)-5-(trifluoromethyl)-4H-1,2-oxazol-3-yl]-2-methyl-N-[(4S)-2-(trifluoromethylsulfanyl)-1,2-oxazolidin-4-yl]benzamide]
≥ 80%: mortality at 200 ppm (Tetranychus urticae) | percent effect (mortality or growth inhibition) at 200 ppm (Euschistus heros) | percent effect (mortality or growth inhibition) at 200 ppm (Diabrotica balteata) | mortality at 200 ppm (Spodoptera littoralis) | percent effect (mortality or growth inhibition) at 200 ppm (Plutella xylostella) | mortality at 200 ppm (Thrips tabaci)

COC(=O)CS(=O)(=O)N1C[C@@H](NC(=O)c2ccc(C3=NO[C@](c4cc(Cl)cc(Cl)c4)(C(F)(F)F)C3)cc2C)CO1 [Compound A176, methyl 2-[[(4R)-4-[[4-[(5R)-5-(3,5-dichlorophenyl)-5-(trifluoromethyl)-4H-1,2-oxazol-3-yl]-2-methylbenzoyl]amino]-1,2-oxazolidin-2-yl]sulfonyl]acetate]
≥ 80%: mortality at 200 ppm (Tetranychus urticae) | percent effect (mortality or growth inhibition) at 200 ppm (Euschistus heros) | percent effect (mortality or growth inhibition) at 200 ppm (Diabrotica balteata) | mortality at 200 ppm (Spodoptera littoralis) | percent effect (mortality or growth inhibition) at 200 ppm (Plutella xylostella) | mortality at 200 ppm (Thrips tabaci)

Cc1cc(C2=NO[C@@](c3cc(Cl)c(F)c(Cl)c3)(C(F)(F)F)C2)ccc1C(=O)NC1CON(S(=O)(=O)N(C)S(C)(=O)=O)C1 (stereo partly drawn) [Compound A92]
≥ 80%: mortality at 200 ppm (Tetranychus urticae) | percent effect (mortality or growth inhibition) at 200 ppm (Euschistus heros) | percent effect (mortality or growth inhibition) at 200 ppm (Diabrotica balteata) | mortality at 200 ppm (Spodoptera littoralis) | percent effect (mortality or growth inhibition) at 200 ppm (Plutella xylostella) | mortality at 200 ppm (Thrips tabaci)

Cc1cc(C2=NO[C@](c3cc(Cl)cc(Cl)c3)(C(F)(F)F)C2)ccc1C(=O)N[C@H]1CON(S(=O)(=O)CC#N)C1 [Compound A165, N-[(4R)-2-(cyanomethylsulfonyl)-1,2-oxazolidin-4-yl]-4-[(5R)-5-(3,5-dichlorophenyl)-5-(trifluoromethyl)-4H-1,2-oxazol-3-yl]-2-methylbenzamide]
≥ 80%: mortality at 200 ppm (Tetranychus urticae) | percent effect (mortality or growth inhibition) at 200 ppm (Euschistus heros) | percent effect (mortality or growth inhibition) at 200 ppm (Diabrotica balteata) | mortality at 200 ppm (Spodoptera littoralis) | percent effect (mortality or growth inhibition) at 200 ppm (Plutella xylostella) | mortality at 200 ppm (Thrips tabaci)
